From patent publication US11351173B2, “Substituted pyrrolo[1,2-a]pyrimidines and their use in the treatment of medical disorders” (Bial—R&D Investments, S.A., priority 2014, dated 2022)
Converted amounts (≈) assume the structure as drawn.

How the values were obtained:
[1] = target: T1, glucocerebrosidase (Gcase) (Homo sapiens, UniProt P04062); test: Glucocerebrosidase (Gcase) activation assay, 4-methylumbelliferyl-beta-D-glucopyranoside substrate, fluorescence readout; assay type: biochemical; conditions: for activation at 0.1 µM: read-out: Percent Gcase Activation, 0.1 μM Test Compound; for activation at 1 µM: read-out: Percent Gcase Activation, 1 μM Test Compound
T1 construct: micellar solution containing 10 nM GCase and 100 nM saposin C
T1 sequence (P04062 40-536): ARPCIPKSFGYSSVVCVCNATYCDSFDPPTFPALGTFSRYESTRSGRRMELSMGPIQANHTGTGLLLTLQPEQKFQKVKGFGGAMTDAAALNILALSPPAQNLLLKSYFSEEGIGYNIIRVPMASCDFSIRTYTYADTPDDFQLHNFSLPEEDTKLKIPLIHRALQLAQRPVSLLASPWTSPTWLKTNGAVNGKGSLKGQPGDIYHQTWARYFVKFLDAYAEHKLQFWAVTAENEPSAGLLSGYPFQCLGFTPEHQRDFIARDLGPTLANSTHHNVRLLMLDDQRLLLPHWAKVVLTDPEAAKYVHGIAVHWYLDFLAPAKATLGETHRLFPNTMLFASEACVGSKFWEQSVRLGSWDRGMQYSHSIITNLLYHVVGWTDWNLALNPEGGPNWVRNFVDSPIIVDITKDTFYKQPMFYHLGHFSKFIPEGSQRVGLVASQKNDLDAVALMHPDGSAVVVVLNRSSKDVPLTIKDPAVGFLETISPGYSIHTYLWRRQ
In short: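 10 nM GCase with 100 nM saposin C pre-incubated 30 min with compound in pH 4.7 phosphate/citrate PS/triton micelles, then mixed 1:1 with 2 mM 4-methylumbelliferyl-β-glucoside micellar substrate (stock level). Run 15 min at room temperature, stopped at pH 12.5; fluorescence 365/440 nm. Screened at 1.0 and 0.1 μM; 8-point curves from 5 μM.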

[2] = Compound solubility in water; conditions: water; for solubility: Compound Solubility in Water

activation at 0.1 µM ([1]; test compound at 0.1 μM) | activation at 1 µM ([1]; test compound at 1.0 μM) | solubility [2] | Compound Solubility in Water [2] | Percent Gcase Activation, 0.1 μM Test Compound ([1]; test compound at 0.1 μM) | Percent Gcase Activation, 1 μM Test Compound ([1]; test compound at 1.0 μM) | solubility ([2]; in water) | Structure (SMILES)
> 20% | > 60% | 4.9 µg/mL (≈ 14.3 µM) |  |  |  |  | [2H]c1c(C([2H])([2H])[2H])nc2c(C(=O)NC3(C)CCOc4ccccc43)cc([2H])n2c1C([2H])([2H])[2H] (stereo not drawn) [III-159]
< 10% | < 30% | 3.7 µg/mL (≈ 11.5 µM) |  |  |  |  | Cc1cc(O)n2ccc(C(=O)NC3CCCc4ccccc43)c2n1 (stereo not drawn) [III-56]
10 to 20% | 30 to 60% | 0.1 µg/mL (≈ 0.287 µM) |  |  |  |  | COc1cc(C)n2ccc(C(=O)Nc3ccc(-c4cocn4)cc3)c2n1 [III-52]
10 to 20% | > 60% | 1.8 µg/mL (≈ 4.4 µM) |  |  |  |  | CCCCO[C@H]1CC[C@H](NC(=O)c2ccn3c(COC)cc(C(F)F)nc23)CC1 [III-34]
10 to 20% | > 60% |  | 33.7 µg/mL |  |  |  | Cc1cc(C)n2ccc(C(=O)NC3CCCC34CCCCO4)c2n1 (stereo not drawn) [III-138]
10 to 20% | > 60% |  | 4.6 µg/mL |  |  |  | CCCCCOC1CCC(NC(=O)c2ccn3c(C)cc(C)nc23)C1 (stereo not drawn) [III-176]
 |  |  |  | * (less than 10% Gcase activation) | + (less than 30% Gcase activation) | 0.2 µg/mL (≈ 0.577 µM) | Cc1cc(C)n2ccc(C(=O)Nc3ccc(-c4cnn(C)c4)nc3)c2n1 [III-283]
10 to 20% | > 60% |  |  |  |  | 12.5 µg/mL (≈ 36.8 µM) | Cc1ccnc2c(C(=O)NC3(C)CCOc4ccc(F)cc43)ccn12 (stereo not drawn) [III-264]
< 10% | < 30% | 27.2 µg/mL (≈ 84.9 µM) |  |  |  |  | Cc1cc(C)n2ccc(C(=O)NC3CCCc4cccnc43)c2n1 (stereo not drawn) [III-193]
< 10% | < 30% | 0.2 µg/mL (≈ 0.577 µM) |  |  |  |  | Cc1cc(C)n2ccc(C(=O)Nc3ccc(-c4cnn(C)c4)nc3)c2n1 [III-21]
< 10% | < 30% |  |  |  |  | 0.5 µg/mL (≈ 1.56 µM) | Cc1cc(C)n2ccc(C(=O)Nc3ccc4c(c3)C(O)CC4)c2n1 (stereo not drawn) [III-222]
> 20% | > 60% | 4.7 µg/mL (≈ 12.4 µM) |  |  |  |  | CCCCO[C@H]1CC[C@H](NC(=O)c2ccn3c(C)cc(C(F)F)nc23)CC1 [III-67]
10 to 20% | 30 to 60% | 0.7 µg/mL (≈ 1.98 µM) |  |  |  |  | Cc1cc(Cl)n2ccc(C(=O)Nc3ccc(-c4cocn4)cc3)c2n1 [III-39]
10 to 20% | > 60% | 6.7 µg/mL (≈ 19.6 µM) |  |  |  |  | Cc1cc(C)n2ccc(C(=O)NC3CCCCC34CCCCO4)c2n1 (stereo not drawn) [III-152]
> 20% | > 60% | < 0.1 µg/mL |  |  |  |  | CCCCCOc1ccc(NC(=O)c2ccn3c(C)cc(C)nc23)cc1 [III-6]
> 20% | > 60% | 2 µg/mL (≈ 5.5 µM) |  |  |  |  | Cc1cc(Cl)nc2c(C(=O)N[C@H]3CC[C@H](OCC(C)C)CC3)ccn12 [III-73]
> 20% | > 60% | 1 µg/mL (≈ 2.79 µM) |  |  |  |  | CNc1cc(C)n2ccc(C(=O)N[C@H]3CC[C@H](OCC(C)C)CC3)c2n1 [III-71]
10 to 20% | > 60% |  |  |  |  | 1.8 µg/mL (≈ 4.66 µM) | Cc1cc(C(F)(F)F)nc2c(C(=O)Nc3ccc(-c4cocn4)cc3)ccn12 [III-252]
< 10% | 30 to 60% |  |  |  |  | 16.7 µg/mL (≈ 56.9 µM) | Cc1ccnc2c(C(=O)NC(C)(C)c3ccccc3)ccn12 [III-259]
> 20% | > 60% | 0.6 µg/mL (≈ 1.62 µM) |  |  |  |  | CCCCO[C@H]1CC2CCC(C1)[C@H]2NC(=O)c1ccn2c(C)cc(C)nc12 [III-182]
10 to 20% | > 60% |  |  |  |  | 17.7 µg/mL (≈ 51.5 µM) | CCCCCO[C@H]1CC[C@H](NC(=O)c2ccn3c(C)ccnc23)CC1 [III-260]
< 10% | > 60% |  |  |  |  | 17.3 µg/mL (≈ 52.5 µM) | CCCO[C@H]1CC[C@H](NC(=O)c2ccn3c(C)cc(C)nc23)CC1 [III-290]
